Values of other authors, collected in publication PMC13170702 (Nuclear medicine and biology, 2025).

Details: i.v., low molar activity tracer, PET-CT; cited from earlier work

## COC(=O)[C@@H](N)CC(=O)Nc1ccc2c(c1)Cc1cc([18F])ccc1-2 [[^18F]RP-115, methyl N^4-(7-[^18F]fluoro-9H-fluoren-2-yl)asparaginate]
  CNS activity uptake (SUV): > 1
